This note sets out measurements from patent US9072676B2, “Cyclohexyl carbamate compounds as skin and/or hair lightening actives” (SYMRISE AG, priority 2010, dated 2015).

The subject of one experiment is Pigmented pig skin. The experiment is described as follows: Depigmenting effect on ex vivo skin (melanin granules, Fontana-Masson stain, image analysis). The settings on record: 0.5 wt.% in O/W emulsion, applied topically, 6 days. Type of experiment: tissue-based. As for the experimental part:
Pigmented pig skin was excised from animals (slaughtered for meat production; the pig skin model included the subcutis fat layer as described in EP 1 939 27), cut into 4×4×3 mm pieces (length×width×height) and placed in culture at the air-liquid interface on a sterilized cotton pad soaked with 5 ml of customized DMEM (Dulbecco's Modified Eagle Medium). Assays were started 24 h after sample acclimatization at 37° C., 5% CO2. O/W emulsions (as described in more detail below) without (=control) and with the test compounds, respectively, were applied topically and incubated for 6 days. Histological sections were prepared and melanin granules stained by Fontana-Masson technique. The granules were quantified by image analysis.
The O/W emulsions used had the following composition:
Phases A and B are heated to 70° C. separately. Pemulen TR1 as well as Ultrez-21 are dispersed in phase B when heated to 70° C. Phase B/C is added to phase A by mixing with an Ultra Turrax, followed by emulsifying. Phase D is slowly added to phase A/B/C using a paddle mixer and a pH 5.5-6 is adjusted. The formulation is cooled down while mixing with a paddle mixer. Phase E is prepared by dissolving one or more compounds of formula (I) in Hydrolite-5. Subsequently, phase E is added to the mixture of phase A-D.
Turning to `COc1ccccc1NC(=O)OC1CC(C)CC(C)(C)C1` (centres unmarked) [BIO1703, (2-Methoxy-phenyl)-carbamic acid 3,3,5-trimethyl-cyclohexyl ester], the “Melanin score vs. Control” value is −37%. On the same count and under the same terms, under `CC1CCCC(OC(=O)Nc2ccccc2O)C1C` (centres unmarked) [BIO1643, (2-Hydroxy-phenyl)-carbamic acid 2,3-dimethyl-cyclohexyl ester] stands −26%.

Staying with this experiment, now noted: 1 wt.% in O/W emulsion, applied topically, 6 days.
On to `CCNC(=O)OC1CC(C)CC(C)C1` (centres unmarked) [BIO1561, Ethyl-carbamic acid 3,5-dimethyl-cyclohexyl ester], for which the “Melanin score vs. Control” value is recorded as −26%.

Turning to `O=C(Nc1ccccc1)OC1CCCCC1` [BIO1741, Phenyl-carbamic acid cyclohexyl ester], the “Melanin score vs. Control” value is given as −28%. On the same count and under the same terms, in the case of `Cc1ccc(NC(=O)OC2CCCCC2C(C)C)cc1` (centres unmarked) [BIO1824, p-Tolyl-carbamic acid 2-isopropyl-cyclohexyl ester] it was −44%.

A further experiment concerns B16V mouse melanoma cells. The experiment is described as follows: Depigmenting effect on melanoma cell cultures (inhibition of pigmentation). Type of experiment: cell-based. The settings on record: 96 h, read-out: IC50 (concentration at which pigmentation is inhibited by 50%). As for the experimental part: B16V mouse melanoma cells are disseminated in a 96-well microtitre plate in a concentration of 5×10^3 cells/well. After cultivation for 24 h at 37° C. and 5% CO2 in RPMI medium, enriched with 10% foetal calf serum, various concentrations of the test substances and 0.3 mM tyrosine and 10 nM α-MSH (α-melanocyte stimulating hormone) are added and incubated for a further 96 h. The maximum concentration of the test substances used corresponds to 0.1 times the value of the IC20 value of the cytotoxicity assay. Standards are incubated with kojic acid in concentrations of 0.01 mM, 0.1 mM and 1 mM in addition to tyrosine and α-MSH. Only tyrosine and α-MSH are added to the controls. After incubation, sodium lauryl sulfate and sodium hydroxide solution (final concentrations: 1 mM and 1 M respectively) are added to the culture medium and the absorption (A) is measured after 3 h at 400 nm.
The inhibition of pigmentation in the presence of the test compounds or kojic acid was calculated using the following equation: Inhibition of pigmentation (%)=100−[(Atest compound/Acontrol)×100] wherein
Atest compound=absorption of the wells with test substance and with cells
Acontrol=absorption of the wells without test substance, but with cells
From the inhibition of pigmentation (%) in a series of dilutions of test compounds, the IC50 for each test compound is calculated. This is the concentration of a test compound at which pigmentation is inhibited by 50%.
For `CCNC(=O)OC1CC(C)CC(C)(C)C1` (centres unmarked) [BIO1572, Ethyl-carbamic acid 3,3,5-trimethyl-cyclohexyl ester], the IC50 stood at 63.1 µM. For `COCCCNC(=O)OC1CC(C)CC(C)(C)C1` (centres unmarked) [BIO1574, (3-Methoxy-propyl)-carbamic acid 3,3,5-trimethyl-cyclohexyl ester], the IC50 was 9.5 µM.

Regarding `CCNC(=O)OC1CC2CCC1(C)C2(C)C` (centres unmarked) [BIO1573, Ethyl-carbamic acid 1,7,7-trimethyl-bicyclo[2.2.1]hept-2-yl ester], the IC50 came out at 74.9 µM.

Still in this experiment, the particulars now being: B16V cells, 0.3 mM tyrosine and 10 nM α-MSH, 96 h incubation, absorption at 400 nm, read-out: IC50 (concentration at which pigmentation is inhibited by 50%).
Take `CCCCNC(=O)OC1CC(C)CC(C)(C)C1` (centres unmarked) [BIO1616, n-Butyl-carbamic acid 3,3,5-trimethyl-cyclohexyl ester]: the IC50 is 10.9 µM. Consider `C=C(C)C1CCC(C)CC1OC(=O)NCC` (centres unmarked) [BIO1551, Ethyl-carbamic acid 2-isopropenyl-5-methyl-cyclohexyl ester], for which the IC50 was 40.9 µM. Same read-out and setting: in the case of `CCC(C)NC(=O)OC1CC(C)CC(C)(C)C1` (centres unmarked) [BIO1844, sec-Butyl-carbamic acid 3,3,5-trimethyl-cyclohexyl ester] it was 219 µM; in that of `CC1CC(C)CC(OC(=O)Nc2ccccc2)C1` (centres unmarked) [BIO1685, Phenyl-carbamic acid 3,5-dimethyl-cyclohexyl ester], 18.9 µM. On the same count and under the same terms, in the case of `CCCCNC(=O)OC1CC(C)CC(C)C1` (centres unmarked) [BIO1840, n-Butyl-carbamic acid 3,5-dimethyl-cyclohexyl ester] it was 89.5 µM.

Regarding `OC[C@H]1O[C@@H](Oc2ccc(O)cc2)[C@H](O)[C@@H](O)[C@@H]1O` [beta-Arbutin, reference compound], the IC50 was 67 µM.

For `COc1ccccc1NC(=O)OC1CC(C)CC(C)(C)C1` (centres unmarked) [BIO1703, (2-Methoxy-phenyl)-carbamic acid 3,3,5-trimethyl-cyclohexyl ester], the IC50 amounted to 25.1 µM.

For the molecule `CCCCNC(=O)OC1C(C)CCC(C)C1C` (centres unmarked) [BIO1617, n-Butyl-carbamic acid 2,3,6-trimethyl-cyclohexyl ester], the IC50 is 15.4 µM.

Take `CC(C)C1CCCCC1OC(=O)Nc1ccccc1O` (centres unmarked) [BIO1646, (2-Hydroxy-phenyl)-carbamic acid 2-isopropyl-cyclohexyl ester]: the IC50 stood at 4.7 µM. Turning to `Cc1ccc(NC(=O)OC2CC(C)CC(C)C2)cc1` (centres unmarked) [BIO1822, p-Tolyl-carbamic acid 3,5-dimethyl-cyclohexyl ester], the IC50 worked out at 52.5 µM. Same read-out and setting: under `CCCCCCNC(=O)OC1CC(C)CC(C)(C)C1` (centres unmarked) [BIO1850, n-Hexyl-carbamic acid 3,3,5-trimethyl-cyclohexyl ester] stands 14.3 µM; under `CC1CC(OC(=O)Nc2ccccc2O)CC(C)(C)C1` (centres unmarked) [BIO1642, (2-Hydroxy-phenyl)-carbamic acid 3,3,5-trimethyl-cyclohexyl ester], 5.6 µM; under `CCCCNC(=O)OC1CCCC(C)C1C` (centres unmarked) [BIO1842, Butyl-carbamic acid 2,3-dimethyl-cyclohexyl ester], 94.1 µM. On the same count and under the same terms, under `CCNC(=O)OC1CC(C)CC(C)C1` (centres unmarked) [BIO1561, Ethyl-carbamic acid 3,5-dimethyl-cyclohexyl ester] stands 32.7 µM; under `CCCCNC(=O)OC1CCCCC1C(C)C` (centres unmarked) [BIO1841, Butyl-carbamic acid 2-isopropyl-cyclohexyl ester], 28.5 µM. Consider `C=C(C)C1CCC(C)CC1OC(=O)NCCCC` (centres unmarked) [BIO1615, Butyl-carbamic acid 2-isopropenyl-5-methyl-cyclohexyl ester], for which the IC50 came to 43 µM. The same measure, in the same setting: under `Cc1ccc(NC(=O)OC2CCCC(C)C2)cc1` (centres unmarked) [BIO1825, p-Tolyl-carbamic acid 3-methyl-cyclohexyl ester] stands 72.5 µM; under `CC(C)(C)C1CCCCC1OC(=O)Nc1ccccc1` (centres unmarked) [BIO1740, Phenyl-carbamic acid 2-tert-butyl-cyclohexyl ester], 5.5 µM; under `O=C(Nc1ccccc1)OC1CCCCC1` [BIO1741, Phenyl-carbamic acid cyclohexyl ester], 12.9 µM. Same read-out and setting: in the case of `CCN(CC)C(=O)OC1C(C)CCC(C)C1C` (centres unmarked) [BIO1692, Diethyl-carbamic acid 2,3,6-trimethyl-cyclohexyl ester] it was 41.7 µM; in that of `CCN(CC)C(=O)OC1CCCCC1C(C)C` (centres unmarked) [BIO1694, Diethyl-carbamic acid 2-isopropyl-cyclohexyl ester], 38.5 µM; in that of `Cc1ccc(NC(=O)OC2CCCCC2C(C)C)cc1` (centres unmarked) [BIO1824, p-Tolyl-carbamic acid 2-isopropyl-cyclohexyl ester], 4.7 µM.

In the case of `CC1CCCC(OC(=O)Nc2ccccc2O)C1C` (centres unmarked) [BIO1643, (2-Hydroxy-phenyl)-carbamic acid 2,3-dimethyl-cyclohexyl ester], the IC50 was found to be 0.7 µM. On the same count and under the same terms, in the case of `CCCC1CCC(OC(=O)NCCCC(OCC)OCC)CC1` (centres unmarked) [BIO1707, (4,4-Diethoxy-butyl)-carbamic acid 4-propyl-cyclohexyl ester] it was 12.7 µM; in that of `COc1ccccc1NC(=O)OC1C(C)CCC(C)C1C` (centres unmarked) [BIO1701, (2-Methoxy-phenyl)-carbamic acid 2,3,6-trimethyl-cyclohexyl ester], 10.2 µM; in that of `CC1CCCCC1NC(=O)OC1CCC(C(C)(C)C)CC1` (centres unmarked) [BIO1690, (2-Methyl-cyclohexyl)-carbamic acid 4-tert-butyl-cyclohexyl ester], 10.9 µM.

Turning to `COc1ccccc1NC(=O)OC1CCCCC1C(C)C` (centres unmarked) [BIO1744, (2-Methoxy-phenyl)-carbamic acid 2-isopropyl-cyclohexyl ester], the IC50 is 18.3 µM.
